Laboratory results from US5215979A, “16,17-acetalsubstituted pregnane 21-oic acid derivatives” (priority 1985, dated 1993).
Where “and” joins values, the source holds several entries; their conditions need not be identical. Equal values may be shown once. Read-outs that look alike come from different tables or passages of the source.

Tests used:
interstitial lung edema = experiment: Sephadex model in the rat: lung edema after Sephadex bead instillation, glucocorticosteroid instilled in left lung lobe; type: in vivo, Sprague-Dawley rats; conditions: for ED50: Rattus norvegicus, read-out: ED50 left lung lobe (required glucocorticosteroid dose to reduce the edema by 50%); for Selectivity ratio ED50 right lung / ED50 left lung: instillation into left lung lobe, higher = more selective for application site
Description: The selectivity for anti-inflammatory effect at the application site in the lung has been investigated in a model system in the rat after intrabronchial instillation of the glucocorticosteroid.
Instillation of Sephadex beads into rat lung leads to bronchial and alveolar inflammation. This provokes interstitial lung edema, which increases the lung weight and the inflammation can be graded as the increase of the lung weight compared to a vehicle-instilled control group. The lung edema formation can be counteracted by pretreatment with glucocorticosteroids, preferably the local administration as intrabronchial installation or as inhalation. Ideally, an anti-inflammatory action should be obtained only at the site of glucocorticosteroid application in the lung but not outside this area, as this in long term treatment can lead to therapy limiting systemic side effects.
(§1) The differentiation between glucocorticosteroid action in the treated lung region and outside this area has been tested by the following test protocol. Sprague-Dawley rats (225 g) were slightly anesthetized with ether and the glucocorticosteroid test preparation in a volume of 0.5 ml/kg was instilled into just the left lung lobe. […] Thirty minutes later, a suspension of Sephadex (5 mg/kg in a volume of 1 ml/kg) was instilled in the trachea well above the bifurcation so that the suspension reached both the left and right lung lobes. Twenty hours later the rats were killed and the left and right lung lobes were dissected out and weighed separately. Also the thymus weight was recorded. Control groups got vehicle instead of glucocorticosteroid preparation and saline instead of Sephadex suspension to determine the weight of non-drug protected Sephadex edema and the normal lung weight, respectively. For each glucocorticosteroid preparation at least 3 doses within the range 0.01-10 mg/kg and with each ≥6 parallels/dose were tested. The glucocorticosteroids were suspended in a vehicle of CMC-Na 0.75%, Tween 80 0.04%, and 0.7% NaCl ad 100%.
For a strict local anti-inflammatory treatment of airway diseases the ideal profile of a compound is that it should counteract the inflammation in the locally treated left lung lobe, but not in the right lung half, which is anticipated to be reached by glucocorticosteroid first via the systemic circulation (after absorption from the left lung). The ratio between the required ED50 's (doses reducing the edema by 50%) in the right and left lung halves, respectively, can be used as a parameter for estimation of the selective activity for the application site. For an ideal glucocorticosteroid this selectivity ratio should be high.

thymus = experiment: Thymus weight recorded in the Sephadex model (systemic effect); type: in vivo, Sprague-Dawley rats; conditions: for Thymus involution % (dose mg/kg): relative to Sephadex control group
Description: as §1

[1] = cited from earlier work; for Plasma half life: after absorption of inhaled GCS; for Site of inactivation (in words): after absorption
[2] = in vivo; cited from earlier work
[3] = cited from earlier work; for Unwanted GCS actions within the general circulation (in words): highest of the recommended doses for inhalation; for Safety margin (in words): inhaled GCS, highest recommended doses for inhalation
[4] = compared with budesonide or BDP; cited from earlier work
[5] = intrabronchial instillation into left lung lobe 30 min before Sephadex, lungs weighed 20 h later

Structure (SMILES) | ED50 (interstitial lung edema; [5]) [mg/kg] | Selectivity ratio ED50 right lung / ED50 left lung (interstitial lung edema) | Thymus involution % (dose mg/kg) (thymus; dose 10 mg/kg) [%] | also measured
CCCC1O[C@@H]2C[C@H]3[C@@H]4CCC5=CC(=O)C=C[C@]5(C)[C@H]4[C@@H](O)C[C@]3(C)[C@]2(C(=O)CO)O1 (some centres unmarked) [Budesonide] | 0.2 | ~ 1.5 and 1.4 |  | Selectivity for activity in the locally treated left lung lobe (in words) (interstitial lung edema; compared with budesonide and FCB): does not reach any selectivity for the application site in lung; Thymus involution % (dose mg/kg) (thymus; dose 0.3 mg/kg): 22%; Plasma half life [1]: ≥ 2 h; Site of inactivation (in words) [1]: inactivated mainly in the liver; Selectivity for the application within airways (in words) [2]: low selectivity; Unwanted GCS actions within the general circulation (in words) [3]: unwanted GCS actions within the general circulation have been reported; Safety margin (in words) [3]: rather narrow safety margin
CCC[C@@H]1O[C@@H]2C[C@H]3[C@@H]4C[C@H](F)C5=CC(=O)C=C[C@]5(C)[C@@]4(F)[C@@H](O)C[C@]3(C)[C@]2(C(=O)C(=O)OC(C)C)O1 [Example 5, isopropyl (22R)-16α,17α-butylidenedioxy-6α,9α-difluoro-11β-hydroxy-3, 20-dioxopregna-1,4-diene-21-oate] | 5 | 10.0 | -1 | Effect on thymus weight (in words) (thymus; dose 10 mg/kg): do not at all affect the thymus weight
CCC(=O)OCC(=O)[C@@]1(OC(=O)CC)[C@@H](C)C[C@H]2[C@@H]3CCC4=CC(=O)C=C[C@]4(C)[C@@]3(Cl)[C@@H](O)C[C@@]21C [beclomethasone 17α, 21-dipropionate] |  |  |  | Plasma half life [1]: ≥ 2 h; Site of inactivation (in words) [1]: inactivated mainly in the liver; Unwanted GCS actions within the general circulation (in words) [3]: unwanted GCS actions within the general circulation have been reported; Safety margin (in words) [3]: rather narrow safety margin
CCC[C@@H]1O[C@@H]2C[C@H]3[C@@H]4C[C@H](F)C5=CC(=O)C=C[C@]5(C)[C@@]4(F)[C@@H](O)C[C@]3(C)[C@]2(C(=O)C(=O)OCC)O1 [Example 3, ethyl (22R)-16α,17α-butylidenedioxy-6α,9α-difluoro-11β-hydroxy-3, 20-dioxopregna-1,4-diene-21-oate] | 1.7 | 5.9 | 15 | 
CCC[C@@H]1O[C@@H]2C[C@H]3[C@@H]4C[C@H](F)C5=CC(=O)C=C[C@]5(C)[C@@]4(F)[C@@H](O)C[C@]3(C)[C@]2(C(=O)C(=O)OC)O1 [Example 1, methyl (22R)-16α,17α-butylidenedioxy-6α, 9α-difluoro-11β-hydroxy-3,20-dioxopregna-1,4-diene-21-oate] | 1.5 | 6.0 | -3 | Effect on thymus weight (in words) (thymus; dose 10 mg/kg): do not at all affect the thymus weight
CCCOC(=O)C(=O)[C@@]12O[C@H](CCC)O[C@@H]1C[C@H]1[C@@H]3C[C@H](F)C4=CC(=O)C=C[C@]4(C)[C@@]3(F)[C@@H](O)C[C@@]12C [Example 4, n-propyl (22R)-16α,17α-butylidenedioxy-6α,9α-difluoro-11β-hydroxy-3, 20-dioxopregna-1,4-diene-21-oate] | < 1 | > 10 | 6 | 
CCCCOC(=O)C(=O)[C@H]1[C@H](C)C[C@H]2[C@@H]3C[C@H](F)C4=CC(=O)C=C[C@]4(C)[C@H]3[C@@H](O)C[C@@]21C [FCB, fluocortin butyl ester] |  | 2-3 and 2.5 | 6 | ED50 (interstitial lung edema; 20 h): 10 mg/kg; Half life time in plasma (in words) ([1]; compared with budesonide): as long half life time in plasma as budesonide; Potency (in words) [4]: lower potency
